Experiment [1] is described as follows: Cell cycle arrest in human H1299 cells assessed as accumulation at G2/M phase by FACS. It is filed as functional, cell-based. The settings on record: NCI-H1299.
A further experiment deals with HeLa. The experiment can be described thus: Antiproliferative activity against human HeLa cells after 48 hrs by MTS assay. In kind it is functional, cell-based.
The target in experiment [2] is T1, Serine/threonine-protein kinase Chk1 (Homo sapiens, UniProt O14757).
T1 sequence (O14757 whole entry): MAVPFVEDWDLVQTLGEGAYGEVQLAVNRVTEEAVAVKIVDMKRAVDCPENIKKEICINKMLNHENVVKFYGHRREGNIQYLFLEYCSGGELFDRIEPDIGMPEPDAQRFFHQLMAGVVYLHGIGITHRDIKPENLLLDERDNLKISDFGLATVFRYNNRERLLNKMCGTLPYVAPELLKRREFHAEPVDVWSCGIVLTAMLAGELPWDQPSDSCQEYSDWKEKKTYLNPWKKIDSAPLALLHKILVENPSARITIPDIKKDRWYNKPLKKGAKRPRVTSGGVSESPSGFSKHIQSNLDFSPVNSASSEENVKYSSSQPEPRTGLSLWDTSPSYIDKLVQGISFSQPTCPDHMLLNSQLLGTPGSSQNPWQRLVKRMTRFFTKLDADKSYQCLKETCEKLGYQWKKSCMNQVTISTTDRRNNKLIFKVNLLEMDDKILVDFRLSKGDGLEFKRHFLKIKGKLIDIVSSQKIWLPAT
The experiment can be described thus: Inhibition of recombinant Chk1.

Experiment [3] deals with T1, Serine/threonine-protein kinase Chk1. The experiment can be described thus: Inhibition of human Chk1 in H1299 cells assessed as blockade of Cdc25A degradation. In kind it is cell-based.

Drawing on ChEMBL document CHEMBL1143927, “Investigation of novel 7,8-disubstituted-5,10-dihydro-dibenzo[b,e][1,4]diazepin-11-ones as potent Chk1 inhibitors” (Bioorg Med Chem Lett, 2008), this text covers EC50 and IC50 for 23 compounds.

The term EC50 denotes the concentration giving half of the maximal effect. As a reminder, the IC50 is the point on the concentration scale where inhibition reaches its midpoint. For the compound `COc1cc2c(cc1CCC(=O)N(C)C)Nc1cc(-c3ccc([N+](=O)[O-])c(OC)c3)ccc1C(=O)N2`, the EC50 in experiment [1] is greater than 10 µM; in the experiment with HeLa, greater than 59 µM; in experiment [3] it was 50 nM. Also, the IC50 in experiment [2] was found to be 7.9 nM.
Taken in the same sequence, the figures for `COc1cc2c(cc1OCC1CCCCO1)Nc1cc(-c3ccc([N+](=O)[O-])c(OC)c3)ccc1C(=O)N2` (stereo not drawn) were 2.4 µM, 2 µM, 200 nM and 4.8 nM.
Consider `COc1cc2c(cc1C(=O)N(C)C)NC(=O)c1ccc(-c3ccc([N+](=O)[O-])c(OC)c3)cc1N2`, for which the EC50 in experiment [1] is greater than 10 µM; in the experiment on HeLa, 45 µM; in experiment [3] it was 3500 nM. For the same compound, the IC50 in experiment [2] was 15.5 nM.
Taken in the same sequence, the figures for `CCc1cc2c(cc1OC)Nc1cc(-c3ccc([N+](=O)[O-])c(OC)c3)ccc1C(=O)N2` were greater than 10 µM, 4.5 µM, 350 nM and 9 nM.
In the same order, the values of `COc1cc2c(cc1OCc1ccncc1)Nc1cc(-c3ccc([N+](=O)[O-])c(OC)c3)ccc1C(=O)N2` are greater than 10 µM, greater than 59 µM, 50 nM and 6.8 nM.
On to `COc1cc2c(cc1OCc1ccccc1C(F)(F)F)Nc1cc(-c3ccc([N+](=O)[O-])c(OC)c3)ccc1C(=O)N2`, for which the EC50 in experiment [1] was greater than 10 µM; in the experiment on HeLa, greater than 59 µM. In addition, the IC50 in experiment [2] was determined as 1050 nM.
In the case of `COc1cc2c(cc1CCc1ccncc1)Nc1cc(-c3ccc([N+](=O)[O-])c(OC)c3)ccc1C(=O)N2`, the EC50 was greater than 10 µM in experiment [1], 9.6 µM in the experiment on HeLa and 2100 nM in experiment [3]. Moreover, the IC50 in experiment [2] amounted to 16.2 nM.
`COCCOCCOc1cc2c(cc1OC)NC(=O)c1ccc(-c3ccc([N+](=O)[O-])c(OC)c3)cc1N2`: the EC50 is greater than 10 µM in experiment [1], 52 µM with HeLa and 3100 nM in experiment [3]. For the same compound, in experiment [2], the IC50 turned out to be 3.1 nM.
In the case of `COc1cc2c(cc1OCCN1CCOCC1)Nc1cc(-c3ccc([N+](=O)[O-])c(OC)c3)ccc1C(=O)N2`, the results for the concentration for a half-maximal effect (EC50) (in experiment [1]; in the experiment with HeLa; in experiment [3]) were 2.4 µM, 2 µM and 200 nM, respectively. Besides, the IC50 in experiment [2] amounted to 8.1 nM.
On to `COc1cc2c(cc1OC)Nc1cc(-c3ccc([N+](=O)[O-])c(OC)c3)ccc1C(=O)N2`, for which the EC50 in experiment [1] is greater than 10 µM; in the experiment on HeLa, greater than 59 µM; in experiment [3], 280 nM. Also, in experiment [2], the IC50 came out at 0.6 nM.
In the case of `COc1cc(-c2ccc3c(c2)Nc2ccccc2NC3=O)ccc1[N+](=O)[O-]`, in the experiment on HeLa, a half-maximal response (EC50) required 47.7 µM.
Consider `COc1cc2c(cc1CC(C)(C)O)Nc1cc(-c3ccc([N+](=O)[O-])c(OC)c3)ccc1C(=O)N2`, for which the figures for the EC50 (in experiment [1]; with HeLa; in experiment [3]) were 1.8 µM, greater than 59 µM and 40 nM, respectively. Further, the IC50 in experiment [2] worked out at 3.4 nM.
Turning to `COc1cc2c(cc1OCCCCO)Nc1cc(-c3ccc([N+](=O)[O-])c(OC)c3)ccc1C(=O)N2`, the EC50 was greater than 10 µM in experiment [1], greater than 59 µM in the experiment on HeLa and 2000 nM in experiment [3]. For the same compound, in experiment [2], the IC50 is 0.7 nM.
In the same order, the values of `COc1cc2c(cc1OCCO)Nc1cc(-c3ccc([N+](=O)[O-])c(OC)c3)ccc1C(=O)N2` are greater than 10 µM, greater than 59 µM, 3100 nM and 0.58 nM.
As to `COc1cc2c(cc1OCCCN)Nc1cc(-c3ccc([N+](=O)[O-])c(OC)c3)ccc1C(=O)N2`, the EC50 was greater than 10 µM in experiment [1], 17.3 µM in the experiment on HeLa and 2600 nM in experiment [3]. Also, in experiment [2], the IC50 stood at 0.98 nM.
On to `COc1cc2c(cc1CCO)Nc1cc(-c3ccc([N+](=O)[O-])c(OC)c3)ccc1C(=O)N2`, for which the figures for the EC50 (in experiment [1]; with HeLa; in experiment [3]) were greater than 10 µM, greater than 59 µM and 900 nM, respectively. The IC50 in experiment [2] came out at 3.5 nM.
`COc1cc2c(cc1CCCO)NC(=O)c1ccc(-c3ccc([N+](=O)[O-])c(OC)c3)cc1N2`: the figures for the EC50 (in experiment [1]; with HeLa; in experiment [3]) were 4.3 µM, 22 µM and 220 nM, respectively. The IC50 in experiment [2] was 1.9 nM.
For `COC(=O)c1cc2c(cc1OC)Nc1cc(-c3ccc([N+](=O)[O-])c(OC)c3)ccc1C(=O)N2`, the EC50 in experiment [1] was greater than 10 µM; with HeLa, greater than 59 µM; in experiment [3], greater than 10000 nM. Also, the IC50 in experiment [2] came out at 11.2 nM.
For `COC(=O)CCc1cc2c(cc1OC)NC(=O)c1ccc(-c3ccc([N+](=O)[O-])c(OC)c3)cc1N2`, the values for the EC50 (in experiment [1]; in the experiment with HeLa; in experiment [3]) were greater than 10 µM, greater than 59 µM and greater than 10000 nM, respectively. In addition, in experiment [2], the IC50 amounted to 22 nM.
`COc1cc2c(cc1CCC(C)(C)O)Nc1cc(-c3ccc([N+](=O)[O-])c(OC)c3)ccc1C(=O)N2`: the EC50 is greater than 10 µM in experiment [1], greater than 59 µM in the experiment on HeLa and 600 nM in experiment [3]. In addition, the IC50 in experiment [2] was determined as 4 nM.
In the same order, the values of `COc1cc2c(cc1CCCO)Nc1cc(-c3ccc([N+](=O)[O-])c(OC)c3)ccc1C(=O)N2` are greater than 10 µM, greater than 59 µM, 1500 nM and 2.6 nM.
For `COc1cc2c(cc1O)Nc1cc(-c3ccc([N+](=O)[O-])c(OC)c3)ccc1C(=O)N2`, the concentration giving a half-maximal response (EC50) is greater than 10 µM in experiment [1], greater than 59 µM in the experiment with HeLa and 70 nM in experiment [3]. The IC50 in experiment [2] came to 0.9 nM.
In the same order, the values of `COc1cc2c(cc1OCc1csc(C)n1)Nc1cc(-c3ccc([N+](=O)[O-])c(OC)c3)ccc1C(=O)N2` are greater than 10 µM, greater than 59 µM, greater than 10000 nM and 4 nM.
